Consider twelve molecules from patent US12012392B2, “Sulfonamide carboxamide compounds” (Inflazome Limited, priority 2017, dated 2024).

By IC50 is commonly meant the concentration at which inhibition is half-maximal. The AUC is the area under the concentration-time curve, a measure of exposure. Read a low AUC as less exposure. The half-life is how long it takes for the measured level to halve.

Structures are written as SMILES. Structures can show the parent of a compound that is named as a salt. Bounds are passed on as bounds.

Series [1] concerns the target T1, NLRP3 (Homo sapiens, UniProt Q96P20). Kind of series: THP-1 cells pyroptosis assay. To be noted: LPS 1 μg/ml, nigericin 5 μM, resazurin read-out. The format is cell-based. Further details: Seed THP-1 cells (25,000 cells/well) containing 1.0 μg/ml LPS; host or cells: THP-1 cells, LPS-primed, nigericin-stimulated. The procedure: THP-1 cells (ATCC #TIB-202) were grown in RPMI containing L-glutamine (Gibco #11835) supplemented with 1 mM sodium pyruvate (Sigma #S8636) and penicillin (100 units/ml)/streptomycin (0.1 mg/ml) (Sigma #P4333) in 10% Fetal Bovine Serum (FBS) (Sigma #F0804). The cells were routinely passaged and grown to confluency (˜10^6 cells/ml). On the day of the experiment, THP-1 cells were harvested and resuspended into RPMI medium (without FBS). The cells were then counted and viability (>90%) checked by Trypan blue (Sigma #T8154). Appropriate dilutions were made to give a concentration of 625,000 cells/ml. To this diluted cell solution was added LPS (Sigma #L4524) to give a 1 μg/ml Final Assay Concentration (FAC). 40 μl of the final preparation was aliquoted into each well of a 96-well plate. The plate thus prepared was used for compound screening.
The following method step-by-step assay was followed for compound screening. • 1. Seed THP-1 cells (25,000 cells/well) containing 1.0 μg/ml LPS in 40 μl of RPMI medium (without FBS) in 96-well, black walled, clear bottom cell culture plates coated with poly-D-lysine (VWR #734-0317) • 2. Add 5 μl compound (8 points half-log dilution, with 10 μM top dose) or vehicle (DMSO 0.1% FAC) to the appropriate wells • 3. Incubate for 3 hrs at 37° C. and 5% CO2 • 4. Add 5 μl nigericin (Sigma #N7143) (FAC 5 μM) to all wells • 5. Incubate for 1 hr at 37° C. and 5% CO2 • 6. At the end of the incubation period, spin plates at 300×g for 3 mins and remove supernatant • 7. Then add 50 μl of resazurin (Sigma #R7017) (FAC 100 μM resazurin in RPMI medium without FBS) and incubate plates for a further 1-2 hrs at 37° C. and 5% CO2 • 8. Plates were read in an Envision reader at Ex 560 nm and Em 590 nm • 9. IC50 data is fitted to a non-linear regression equation (log inhibitor vs response-variable slope 4-parameters) 96-Well Plate Map
(In general: Alamar Blue is a resazurin reagent that responds to reducing activity.)

Series [2] has as its target T1, NLRP3. Kind of series: Human whole blood IL1β release assay. Type of series: cell-based. Further details: Plate out 80 μl of whole blood containing 1 μg/ml of LPS; from tissue; host or cells: human whole blood from healthy donors, LPS-primed, nigericin-stimulated. To be noted: LPS 1 μg/ml, nigericin 10 μM, IL-1β AlphaLisa, read-out: HWB IC50. As for the experimental part: For systemic delivery, the ability to inhibit NLRP3 when the compounds are present within the bloodstream is of great importance. For this reason, the NLRP3 inhibitory activity of a number of compounds in human whole blood was investigated in accordance with the following protocol.
Human whole blood in Li-heparin tubes was obtained from healthy donors from a volunteer donor panel. • 1. Plate out 80 μl of whole blood containing 1 μg/ml of LPS in 96-well, clear bottom cell culture plate (Corning #3585) • 2. Add […] compound (8 points half-log dilution with 10 μM top dose) or vehicle (DMSO 0.1% FAC) to the appropriate wells • 3. Incubate for 3 hrs at 37° C., 5% CO2 • 4. Add 10 μl Nigericin (Sigma #N7143) (10 μM FAC) to all wells • 5. Incubate for 1 hr at 37° C., 5 CO2 • 6. At the end of the incubation period, spin plates at 300×g for 5 mins to pellet cells and remove 20 μl of supernatant and add to 96-well v-bottom plates for […] analysis (note: these plates containing the supernatants can be stored at −80° C. to be analysed at a later date) • 7. IL-1β was measured according to the manufacturer protocol (Perkin Elmer-AlphaLisa IL-1 Kit AL220F-5000) • 8. IC50 data is fitted to anon-linear regression equation (log inhibitor vs response-variable slope 4-parameters)
(In Alpha technology, singlet oxygen from a donor bead excites a nearby acceptor bead.)

The nature of series [3]: PK protocol (intravenous and oral administration). The format is in vivo, male Sprague Dawley rats. To be noted: male, Sprague Dawley, plasma, rat, intravenous, dose 2.41 mg/kg. As for the experimental part:
Pharmacokinetic parameters were determined in male Sprague Dawley rats (Charles River, UK, 250-350 g; or Vital River Laboratory Animal Technology Co Ltd, Beijing, China, 7-9 weeks old). Animals were individually housed during the study and maintained under a 12 h light/dark cycle. Animals had free access to food and water except that some orally dosed animals were food deprived overnight prior to the study. For intravenous administration, compounds were formulated as a solution in water or DMSO:PBS [10:90] in 2 mL/kg dosing volume and administered via tail vein. For oral administration, compounds were formulated as a solution in water or DMSO:water [10:90] in 5 mL/kg dosing volume and administered orally.
Serial blood samples (about 120-300 μL) were taken from each animal at each of 8 time-points post dose (0.083, 0.25, 0.5, 1, 2, 4, 8 and 24 h) or at each of 12 time-points post dose (0.03, 0.1, 0.17, 0.25, 0.5, 1, 2, 4, 6, 8, 12 and 24 h) or pre-dose and at each of 9 time-points post dose (0.25, 0.5, 1, 2, 4, 6, 8, 12 and 24 h). Samples were held on ice for no longer than 30 minutes before centrifugation (10,000 rpm (8,385 g) for 3 minutes; or 5,696 rpm (3,000 g) for 15 minutes) for plasma generation. Plasma was frozen on dry ice prior to bioanalysis. PK parameters were generated from LC-MS/MS data using Dotmatics or Phoenix WinNonlin 6.3 software.

T1 sequence (Q96P20 whole entry): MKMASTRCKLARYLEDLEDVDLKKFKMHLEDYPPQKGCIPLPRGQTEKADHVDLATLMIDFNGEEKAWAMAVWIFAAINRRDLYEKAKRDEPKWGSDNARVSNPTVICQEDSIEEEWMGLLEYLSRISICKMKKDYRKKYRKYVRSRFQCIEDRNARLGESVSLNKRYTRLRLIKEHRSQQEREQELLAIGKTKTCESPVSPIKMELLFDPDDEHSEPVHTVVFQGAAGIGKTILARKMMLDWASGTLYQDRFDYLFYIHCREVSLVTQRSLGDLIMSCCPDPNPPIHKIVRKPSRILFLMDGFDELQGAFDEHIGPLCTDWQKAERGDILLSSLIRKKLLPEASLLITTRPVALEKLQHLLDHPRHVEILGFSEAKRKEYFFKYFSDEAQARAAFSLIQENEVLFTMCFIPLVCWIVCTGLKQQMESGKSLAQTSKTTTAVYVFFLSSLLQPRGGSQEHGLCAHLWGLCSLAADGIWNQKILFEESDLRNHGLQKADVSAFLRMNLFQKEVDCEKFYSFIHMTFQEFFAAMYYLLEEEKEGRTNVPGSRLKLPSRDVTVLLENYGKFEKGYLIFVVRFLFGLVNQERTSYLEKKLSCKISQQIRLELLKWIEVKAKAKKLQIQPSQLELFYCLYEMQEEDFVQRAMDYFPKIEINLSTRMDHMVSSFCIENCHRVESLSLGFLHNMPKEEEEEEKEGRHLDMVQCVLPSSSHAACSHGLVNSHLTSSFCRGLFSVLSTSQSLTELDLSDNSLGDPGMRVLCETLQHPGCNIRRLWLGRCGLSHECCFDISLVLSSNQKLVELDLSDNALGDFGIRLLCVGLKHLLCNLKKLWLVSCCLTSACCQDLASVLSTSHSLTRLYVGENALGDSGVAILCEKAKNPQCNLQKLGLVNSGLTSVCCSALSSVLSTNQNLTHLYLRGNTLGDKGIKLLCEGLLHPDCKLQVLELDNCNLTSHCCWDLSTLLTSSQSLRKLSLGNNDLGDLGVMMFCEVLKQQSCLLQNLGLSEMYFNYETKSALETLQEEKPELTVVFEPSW

With `O=C(Nc1c2c(cc3c1CCC3)CCC2)NS(=O)(=O)c1ccn(C2CCCC2O)n1` (racemic) [Example 22, N-((1,2,3,5,6,7-Hexahydro-s-indacen-4-yl)carbamoyl)-1-(2-hydroxycyclopentyl)-1H-pyrazole-1-sulfonamide], the IC50 at NLRP3 [1] was 40 to 160 nM; at NLRP3 [2] it was 400 to 800 nM.
For `O=C(Nc1c2c(cc3c1CCC3)CCC2)NS(=O)(=O)c1ccn(CC2CCCO2)n1` (single isomer, unassigned) [Example 4] the same measures were 40 to 160 nM and 3200 to 10000 nM.
Regarding `O=C(Nc1c2c(cc3c1CCC3)CCC2)NS(=O)(=O)c1ccn(CC2CCCO2)n1` (single isomer, unassigned) [Example 5], the concentration for half-maximal inhibition (IC50) fell in the range of 40 to 160 nM on NLRP3 [1] and 800 to 1600 nM on NLRP3 [2].
Consider `O=C(Nc1c2c(cc3c1CCC3)CCC2)NS(=O)(=O)c1ccn(CC2CCOC2)n1` (stereo not drawn) [Example 6, N-((1,2,3,5,6,7-Hexahydro-s-indacen-4-yl)carbamoyl)-1-((tetrahydrofuran-3-yl)methyl)-1H-pyrazole-3-sulfonamide], for which the results for the half-maximal inhibitory concentration (IC50) at NLRP3 [1] and at NLRP3 [2] were 40 to 160 nM and 800 to 1600 nM, respectively.
For `O=C(Nc1c2c(cc3c1CCC3)CCC2)NS(=O)(=O)c1ccn(CCCO)n1` [Example 7, N-((1,2,3,5,6,7-Hexahydro-s-indacen-4-yl)carbamoyl)-1-(3-hydroxypropyl)-1H-pyrazole-3-sulfonamide] the same measures were 40 to 160 nM and 400 to 800 nM.
Take `O=C(Nc1c2c(cc3c1CCC3)CCC2)NS(=O)(=O)c1ccn(CCO)n1` [Example 8, N-((1,2,3,5,6,7-Hexahydro-s-indacen-4-yl)carbamoyl)-1-(2-hydroxyethyl)-1H-pyrazole-3-sulfonamide]: the figures for the IC50 at NLRP3 [1] and at NLRP3 [2] were 40 to 160 nM and below 400 nM, respectively.
For `CC1(Cn2ccc(S(=O)(=O)NC(=O)Nc3c4c(cc5c3CCC5)CCC4)n2)COC1` [Example 9, N-((1,2,3,5,6,7-Hexahydro-s-indacen-4-yl)carbamoyl)-1-((3-methyloxetan-3-yl)methyl)-1H-pyrazole-3-sulfonamide, partial ammonium salt] the same measures were 640 to 2560 nM and 3200 to 10000 nM.
For the molecule `O=C(Nc1c2c(cc3c1CCC3)CCC2)NS(=O)(=O)c1ccn(C2COC2)n1` [Example 12, N-((1,2,3,5,6,7-Hexahydro-s-indacen-4-yl)carbamoyl)-1-(oxetan-3-yl)-1H-pyrazole-3-sulfonamide], the results for the concentration for half-maximal inhibition (IC50) at NLRP3 [1] and on NLRP3 [2] were 160 to 640 nM and 800 to 1600 nM, respectively.
For `COC(C)(C)Cn1ccc(S(=O)(=O)NC(=O)Nc2c3c(cc4c2CCC4)CCC3)n1` [Example 14, N-((1,2,3,5,6,7-Hexahydro-s-indacen-4-yl)carbamoyl)-1-(2-methoxy-2-methylpropyl)-1H-pyrazole-3-sulfonamide] the same measures were below 40 nM and 400 to 800 nM.
For the molecule `C[C@@H](CO)n1ccc(S(=O)(=O)NC(=O)Nc2c3c(cc4c2CCC4)CCC3)n1` [Example 15, (S)—N-((1,2,3,5,6,7-Hexahydro-s-indacen-4-yl)carbamoyl)-1-(1-hydroxypropan-2-yl)-1H-pyrazole-3-sulfonamide], the results for the IC50 at NLRP3 [1] and on NLRP3 [2] were 40 to 160 nM and 800 to 1600 nM, respectively.
As to `COC(C)(C)Cn1ccc(S(=O)(=O)NC(=O)Nc2c(C(C)C)cc(F)cc2C(C)C)n1` [Example 17, N-((4-Fluoro-2,6-diisopropylphenyl)carbamoyl)-1-(2-methoxy-2-methylpropyl)-1H-pyrazole-3-sulfonamide], the figures for the IC50 on NLRP3 [1] and at NLRP3 [2] were 640 to 2560 nM and 3200 to 10000 nM, respectively.
`CN(CCO)C(=O)c1cc(S(=O)(=O)NC(=O)Nc2c3c(cc4c2CCC4)CCC3)nn1C` [Example 59, 3-(N-((1,2,3,5,6,7-Hexahydro-s-indacen-4-yl)carbamoyl)sulfamoyl)-N-(2-hydroxyethyl)-N,1-dimethyl-1H-pyrazole-5-carboxamide]: the concentration for half-maximal inhibition (IC50) at NLRP3 [1] lay within 40 to 160 nM. In series [3], the exposure (AUC) turned out to be 787 ng·h/mL, the clearance came out at 114 mL/min/kg and the half-life is 18 min. Also, the Vd in series [3] (read-out: Vdss) was 2.37 L/kg.
